From the supplement of paper PMC10307832

How the values were obtained:
Assay in all cases: relative viability (nuclei count vs DMSO), 5 days (fraction); higher = more cells survive
[1] = compound: C[C@]12O[C@H](C[C@]1(O)CO)n1c3ccccc3c3c4c(c5c6ccccc6n2c5c31)CNC4=O [Lestaurtinib] + CS(=O)(=O)N1CCN(Cc2cc3nc(-c4cccc5[nH]ncc45)nc(N4CCOCC4)c3s2)CC1 [Pictilisib] (partner 1 µM)
In short: (§1)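 After 5 days of treatment, lung cancer cells in 1536-well plates were fixed and stained in a single step (final 0.05% Triton X-100, 1% formaldehyde, 1 ug/ml Hoechst) and their nuclei counted on 4× images. Treatment had been applied by pin tool the day after seeding as one drug alone or as a fixed anchor-drug dose with five library-drug doses (not always all listed) in √10 steps. Relative viability is the nuclei count of treated wells divided by that of vehicle wells, and values are medians of duplicate plates.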

TPCA-1 + Olaparib = compound: C1=CC(=CC=C1C2=CC(=C(S2)NC(=O)N)C(=O)N)F [TPCA-1] + O=C(c1cc(Cc2n[nH]c(=O)c3ccccc23)ccc1F)N1CCN(C(=O)C2CC2)CC1 [Olaparib] (partner 8 µM)
In short: as §1

TPCA-1 + OSI-027 = compound: C1=CC(=CC=C1C2=CC(=C(S2)NC(=O)N)C(=O)N)F [TPCA-1] + COc1cccc2cc(-c3nc([C@H]4CC[C@H](C(=O)O)CC4)n4ncnc(N)c34)[nH]c12 [OSI-027] (partner 0.5 µM)
In short: as §1

Lestaurtinib + Olaparib = compound: C[C@]12O[C@H](C[C@]1(O)CO)n1c3ccccc3c3c4c(c5c6ccccc6n2c5c31)CNC4=O [Lestaurtinib] + O=C(c1cc(Cc2n[nH]c(=O)c3ccccc23)ccc1F)N1CCN(C(=O)C2CC2)CC1 [Olaparib] (partner 8 µM)
In short: as §1

| Cell Line | relative viability ([1]; first compound 0.005 µM) | relative viability ([1]; first compound 0.01581 µM) | relative viability ([1]; first compound 0.05 µM) | relative viability ([1]; first compound 0.1581 µM) | relative viability ([1]; first compound 0.5 µM) | relative viability (TPCA-1 + Olaparib; first compound 0.04 µM) | relative viability (TPCA-1 + Olaparib; first compound 0.1265 µM) | relative viability (TPCA-1 + Olaparib; first compound 0.4 µM) | relative viability (TPCA-1 + Olaparib; first compound 1.265 µM) | relative viability (TPCA-1 + Olaparib; first compound 4 µM) | relative viability (TPCA-1 + OSI-027; first compound 0.04 µM) | relative viability (TPCA-1 + OSI-027; first compound 0.1265 µM) | relative viability (TPCA-1 + OSI-027; first compound 0.4 µM) | relative viability (TPCA-1 + OSI-027; first compound 1.265 µM) | relative viability (TPCA-1 + OSI-027; first compound 4 µM) | relative viability (Lestaurtinib + Olaparib; first compound 0.005 µM) | relative viability (Lestaurtinib + Olaparib; first compound 0.01581 µM) | relative viability (Lestaurtinib + Olaparib; first compound 0.05 µM) | relative viability (Lestaurtinib + Olaparib; first compound 0.1581 µM) | relative viability (Lestaurtinib + Olaparib; first compound 0.5 µM) |
| --- | --- | --- | --- | --- | --- | --- | --- | --- | --- | --- | --- | --- | --- | --- | --- | --- | --- | --- | --- | --- |
| NCI-H460 | 0.315 | 0.392 | 0.298 | 0.224 | 0.201 | 0.475 | 0.465 | 0.463 | 0.392 | 0.278 | 0.794 | 0.642 | 0.631 | 0.584 | 0.137 | 0.511 | 0.532 | 0.449 | 0.516 | 0.429 |
| NCI-H1755 | 0.444 | 0.492 | 0.211 | 0.269 | 0.175 | 0.778 | 0.912 | 0.877 | 0.853 | 0.672 | 0.755 | 0.621 | 0.804 | 0.539 | 0.496 | 0.953 | 0.944 | 0.753 | 0.628 | 0.373 |
| NCI-H358 | 0.346 | 0.28 | 0.28 | 0.221 | 0.181 | 0.619 | 0.48 | 0.646 | 0.546 | 0.32 | 0.808 | 0.657 | 0.816 | 0.52 | 0.226 | 0.548 | 0.396 | 0.408 | 0.322 | 0.141 |
| NCI-H1734 | 0.444 | 0.399 | 0.316 | 0.251 | 0.196 | 0.648 | 0.559 | 0.692 | 0.561 | 0.463 | 0.822 | 0.477 | 0.656 | 0.745 | 0.33 | 0.647 | 0.626 | 0.578 | 0.533 | 0.271 |
| EPLC-272H | 0.292 | 0.318 | 0.212 | 0.286 | 0.305 | 0.992 | 0.709 | 0.839 | 0.455 | 0.372 | 0.346 | 0.236 | 0.305 | 0.277 | 0.288 | 0.58 | 0.53 | 0.503 | 0.359 | 0.108 |
| NCI-H2126 | 0.493 | 0.525 | 0.415 | 0.449 | 0.411 | 0.951 | 0.924 | 0.911 | 0.875 | 0.88 | 0.623 | 0.961 | 0.786 | 0.685 | 0.616 | 1.03 | 0.971 | 0.812 | 0.852 | 0.842 |
